Measured values reported in PMC4090677 (Frontiers in Immunology, 2014).

Experiment: physchem
Settings: pH 7.6, aqueous with cosolvent or surfactant or cyclodextrin, kinetic from dmso stock

COc1ccccc1N1CCN(C(=O)c2ccc3c(c2)NC(=O)C(CSCc2ccccc2C)N3)CC1 (stereo not shown) [Compound 4] gave a solubility of at most 50 µM.
